According to US5082771A, “Detecting cells using tellurapyrylium dihydroxides” (Eastman Kodak Company, priority 1989, dated 1992):

Tests used:
[1] = Maximum absorption and extinction coefficient of the Te(IV) dihydroxides in water; assay type: physicochemical; settings: for extinction coefficient (ε): at λmax
Excerpt: The maximum absorption and extinction coefficient for the compounds in water is listed below: […]

[2] = Stability (half life) at 37° C. at various pH values; assay type: physicochemical
Excerpt: The stability of the dihydroxycompounds used in this invention is generally very good.

E. Coli [3] = assay: Absorption spectra over time of a system comprising E. Coli and a tellurium (IV) dihydroxide (FIG. 1); assay type: cell-based; settings: for absorption maximum: FIG. 1, system comprising E. Coli
Excerpt: FIG. 1 comprises a series of plots showing the change, over time, of the absorption spectrum of a system comprising E. Coli. and a tellurium (IV) dihydroxide. More specifically, the series of plots follows the reduction: [drawing 1] as a function of time.
Over time, as the E. Coli reduces the tellurium (IV) dihydroxide. i.e., the TPDH. the absorption at 510 nm diminishes until it becomes non existent. As the absorption diminishes at 510 nm, a much more intense absorption peak at about 820 nm arises. In other words, the extinction coefficient for the absorption maximum of the TPDH is mu:h less than the extinction coefficient for the absorption maximum for the reduction product. Stated another way, the extinction coefficient for the absorption peak of the reduction product is much greater than the extinction coefficient for the absorption peak of the TPDH.
The time interval between each spectophometric tracing in FIG. 1 is about 30 seconds.

E. Coli [4] = assay: Reduction of Te/Te Dye by suspension of E. Coli cells, change in optical density as a function of time (Example 2); assay type: cell-based; settings: 1 × 10^-4 M, pH about 7.8
Excerpt: The final concentration of the TPDN was about 1×10^-4 molar after dilution.
The stock solutions of the TPDH can be prepared in a concentration within the range of from about 5×10^-2 and about 5×10^-4 molar.

For `CC(C)(C)C1=CC(=CC=Cc2cc(C(C)(C)C)[s+]c(C(C)(C)C)c2)C=C(C(C)(C)C)[Te]1(O)O` [Te/S Dye], the “maximum absorption (λmax)” value [1] was 480 nm and the “extinction coefficient (ε)” value [1] was 52,000.
With `CC(C)(C)C1=CC(=CC=Cc2cc(C(C)(C)C)[te+]c(C(C)(C)C)c2)C=C(C(C)(C)C)[Te]1(O)O` [drawing 16] the half-life ([2]; pH 4.58) was 3.5 h, the half-life ([2]; pH 5.98) was 4.5 h and the half-life ([2]; pH 7.4, pH 7.40) was 12 h. It also gave a half-life ([2]; pH 8.5, pH 8.50) of 12 h, a half-life ([2]; pH 9.03) of 8.5 h and a half-life ([2]; pH 10.2, pH 10.20) of 8 h. The half-life ([2]; pH 11.98) was 6.3 h.
For `CC(C)(C)C1=CC(=CC=Cc2cc(C(C)(C)C)[te+]c(C(C)(C)C)c2)C=C(C(C)(C)C)[Te]1` [compound (b), 4-[3-[2,6-bis(1,1-dimethylethyl-4H-tellurin-4-ylidene]-1-propenyl]-2,6-bis(1,1-dimethylethyl) -tellurinium chloride], the absorption maximum (E. Coli [3]) was “about 820 nm”.
For `CC(C)(C)C1=CC(=CC=Cc2cc(C(C)(C)C)[se+]c(C(C)(C)C)c2)C=C(C(C)(C)C)[Te]1(O)O` [Te/Se Dye], the “maximum absorption (λmax)” value [1] was 502 nm and the “extinction coefficient (ε)” value [1] was 55,000.
For `CC(C)(C)C1=CC(=CC=Cc2cc(C(C)(C)C)[te+]c(C(C)(C)C)c2)C=C(C(C)(C)C)[Te]1(O)O` [Te/Te Dye, 4[3[2,6-bis(1,1-dimethylethyl)-tellurinium-4-yl]-2-propenylidene]-1,1-dihydroxy-2,6-bis(1,1-dimethylethyl)-1,1-dihydro-4H-tellurin chloride], the “maximum absorption (λmax)” value [1] was 510 nm, the “extinction coefficient (ε)” value [1] was 56,000 and the “Optical Density (O.D.) @ 820 nm” value (E. Coli [4]; 10^5 Cells/mL, 0.0 s) was 0.05. The “Optical Density (O.D.) @ 820 nm” value (E. Coli [4]; 10^5 Cells/mL, 60 s) was 0.15, the “Optical Density (O.D.) @ 820 nm” value (E. Coli [4]; 10^5 Cells/mL, 120 s) was 0.90 and the “Optical Density (O.D.) @ 820 nm” value (E. Coli [4]; 10^5 Cells/mL, 180 s) was 0.65. For the same molecule, the “Optical Density (O.D.) @ 820 nm” value (E. Coli [4]; 10^5 Cells/mL, 240 s) was 0.89, the “Optical Density (O.D.) @ 820 nm” value (E. Coli [4]; 10^5 Cells/mL, 300 s) was 0.98 and the “Optical Density (O.D.) @ 820 nm” value (E. Coli [4]; 10^5 Cells/mL, 360 s) was 1.13. For the same molecule, the “Optical Density (O.D.) @ 820 nm” value (E. Coli [4]; 10^5 Cells/mL, 420 s) was 1.18, the “Optical Density (O.D.) @ 820 nm” value (E. Coli [4]; 10^5 Cells/mL, 480 s) was 1.23 and the “Optical Density (O.D.) @ 820 nm” value (E. Coli [4]; 10^5 Cells/mL, 540 s) was 1.24. For the same molecule, the “Optical Density (O.D.) @ 820 nm” value (E. Coli [4]; 10^6 Cells/mL, 0.0 s) was 0.05, the “Optical Density (O.D.) @ 820 nm” value (E. Coli [4]; 10^6 Cells/mL, 30 s) was 0.10 and the “Optical Density (O.D.) @ 820 nm” value (E. Coli [4]; 10^6 Cells/mL, 60 s) was 0.32. For the same molecule, the “Optical Density (O.D.) @ 820 nm” value (E. Coli [4]; 10^6 Cells/mL, 120 s) was 0.63, the “Optical Density (O.D.) @ 820 nm” value (E. Coli [4]; 10^6 Cells/mL, 150 s) was 0.84 and the “Optical Density (O.D.) @ 820 nm” value (E. Coli [4]; 10^6 Cells/mL, 210 s) was 1.15. For the same molecule, the “Optical Density (O.D.) @ 820 nm” value (E. Coli [4]; 10^6 Cells/mL, 270 s) was 1.46, the “Optical Density (O.D.) @ 820 nm” value (E. Coli [4]; 10^6 Cells/mL, 300 s) was 1.60 and the “Optical Density (O.D.) @ 820 nm” value (E. Coli [4]; 10^6 Cells/mL, 330 s) was 1.73. For the same molecule, the “Optical Density (O.D.) @ 820 nm” value (E. Coli [4]; 10^6 Cells/mL, 390 s) was 2.00, the “absorption at about 820 nm” value (E. Coli [3]; FIG. 1, before reduction) was “practically no absorption” and the absorption maximum (E. Coli [3]) was “about 510 nm”. For the same molecule, the “absorption at about 510 nm after reduction by E. Coli” value (E. Coli [3]; over time, tracings about every 30 seconds) was “non existent”.
